The record followed here is ChEMBL document CHEMBL1201862, “PubChem BioAssay data set” (2004).

The AC50 is the concentration giving half of the maximal activity seen. In general, EC50 refers to the concentration that produces a half-maximal response. One may read the IC50 as the point on the concentration scale where inhibition reaches its midpoint. As usually defined, the CC50 is the concentration at which the toxic effect on the cells reaches its halfway point.

Active and inactive are the calls of the source.

Assay [1] deals with Heat shock protein HSP 90-alpha (Homo sapiens, UniProt P07900). The assay is classed as functional, organism-based.
The nature of assay [2]: Luminescence Cell-Based Dose Retest to Confirm Inhibitors of Cancer Stem Cells. [Related pubchem assays (depositor defined):AID2717, AID2721]. The note with it: Homo sapiens. The assay is classed as functional.
Assay [3] deals with T1, Oxysterols receptor LXR-beta (Homo sapiens, UniProt P55055).
T1 sequence (P55055 whole entry): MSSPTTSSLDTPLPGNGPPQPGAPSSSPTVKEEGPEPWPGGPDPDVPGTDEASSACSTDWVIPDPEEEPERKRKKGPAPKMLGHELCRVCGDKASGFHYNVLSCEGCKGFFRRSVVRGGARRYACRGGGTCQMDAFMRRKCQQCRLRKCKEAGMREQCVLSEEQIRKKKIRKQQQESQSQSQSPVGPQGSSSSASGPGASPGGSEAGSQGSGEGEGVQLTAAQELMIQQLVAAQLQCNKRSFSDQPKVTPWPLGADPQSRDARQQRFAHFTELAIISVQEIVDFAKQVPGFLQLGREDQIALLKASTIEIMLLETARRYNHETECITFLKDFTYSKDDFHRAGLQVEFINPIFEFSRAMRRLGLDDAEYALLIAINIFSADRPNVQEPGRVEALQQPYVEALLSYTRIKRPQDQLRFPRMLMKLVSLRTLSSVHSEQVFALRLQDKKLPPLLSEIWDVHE
It is filed as functional, cell-based.

In another assay the test system is HeLa. Put plainly: ATP-based viability loss in HeLa cells – cell-based, CellTiter-Glo luminescence, cherry-pick samples, cytotoxicity control for MITF activator project, dose response (AID 540259). It is filed as functional. As to conditions: Homo sapiens.
The nature of assay [4]: cells. The assay is classed as functional, cell-based.
Assay [5] can be described thus: cells. It is filed as functional, cell-based. The source holds these as a separate data set.
In a further assay the target is T2, CAAX prenyl protease 2 (Saccharomyces cerevisiae S288c, UniProt Q03530).
T2 sequence (Q03530 whole entry): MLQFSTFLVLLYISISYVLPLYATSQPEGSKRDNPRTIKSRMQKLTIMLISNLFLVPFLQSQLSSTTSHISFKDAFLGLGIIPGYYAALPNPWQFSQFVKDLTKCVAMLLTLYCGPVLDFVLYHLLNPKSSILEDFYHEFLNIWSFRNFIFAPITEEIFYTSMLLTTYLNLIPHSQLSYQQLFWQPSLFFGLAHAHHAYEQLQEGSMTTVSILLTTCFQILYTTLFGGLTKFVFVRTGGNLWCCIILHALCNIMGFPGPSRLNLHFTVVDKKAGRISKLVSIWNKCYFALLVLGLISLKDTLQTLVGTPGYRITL
The assay is classed as biochemical.

Assay [6] can be described thus: HEK-293T cell viability reduction – luminescence, B-cell screen hits, cytotoxicity control for BCR NF-kB inhibitor project, dose response (AID 489021).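 Also: HEK-293T cells carrying an NF-kB luciferase reporter; cells exposed to compound for about 14 hours before viability readout.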 The assay is classed as functional, cell-based.
Assay [7] addresses T3, Carboxy-terminal domain RNA polymerase II polypeptide A small phosphatase 1 (Homo sapiens, UniProt Q9GZU7).
T3 sequence (Q9GZU7 whole entry): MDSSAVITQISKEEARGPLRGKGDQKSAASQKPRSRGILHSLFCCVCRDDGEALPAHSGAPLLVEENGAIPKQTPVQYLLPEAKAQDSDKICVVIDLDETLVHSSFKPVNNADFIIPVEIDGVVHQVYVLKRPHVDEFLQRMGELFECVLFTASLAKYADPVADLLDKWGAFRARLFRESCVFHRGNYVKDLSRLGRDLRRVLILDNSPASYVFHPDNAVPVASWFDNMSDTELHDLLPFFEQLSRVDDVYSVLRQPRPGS
Briefly: CTDSP1 inhibitors, concentration-response, biochemical, absorbance readout, ultra-high-throughput screen actives (AID 540297). The assay is classed as functional.

The nature of assay [8]: cells. It is filed as functional.
A short description of assay [9]: blockers of HIV-1 ZM109 envelope-driven cell-cell fusion – HeLa effector, CEM target cells, luciferase, cherry-pick, dose response (AID 652058).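 Also: luciferase signal from HIV-1 Env mediated cell-cell fusion of effector and target cells.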 The assay is classed as functional, cell-based.
Assay [10] can be described thus: HIV-1 AD8 envelope cell-cell fusion blockers – cherry-pick, dose response (AID 652062).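 Also: luciferase signal from cell-cell fusion driven by HIV-1 clade B AD8 Env; potency is for inhibitors of fusion seen as a drop in luminescence.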 It is filed as functional, cell-based.
Assay [11] is described as follows: viability loss in CEM21 cells – cell-based, CellTiter-Glo luminescence, cherry-picked, cytotoxicity control for viral fusion inhibitor project, dose response (AID 652042).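 Also: potency for signal decrease meaning cytotoxicity.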 It is filed as functional. (In ATP-based viability assays light output follows the ATP content of the culture.)
Assay [12] is described as follows: blockers of HIV-1 envelope-mediated cell-cell fusion – cherry-pick, dose response (AID 652057). The assay is classed as functional, cell-based.
Assay [13] has as its target Induced myeloid leukemia cell differentiation protein Mcl-1 (Homo sapiens, UniProt Q07820). It is filed as functional.
The next assay has as its target Nonstructural protein 1 (Influenza A virus, UniProt Q194T2). The assay is classed as functional, Influenza A virus (A/California/07/2009(H1N1)).
The nature of assay [14]: Trypanosoma cruzi growth suppression in host cells – NIH3T3 host cells, beta-gal luminescence, confirmation (AID 2044).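 Also: intracellular parasites grown in NIH/3T3 mouse fibroblasts as host cells; luminescent beta-galactosidase reporter signal from transgenic T. cruzi replicating inside host cells; inhibitors lower the luminescence signal.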 It is filed as functional, cell-based.
The target of assay [15] is Glyceraldehyde-3-phosphate dehydrogenase (Homo sapiens, UniProt P04406).
Assay [16] can be described thus: viability of uninfected HEp-2 cells – cell-based, HTS, cytotoxicity control for RSV inhibitor project, dose response (AID 2410). It is filed as functional. As to conditions: human respiratory syncytial virus.
The next assay concerns the target T4, Protein skinhead-1 (Caenorhabditis elegans, UniProt P34707).
T4 sequence (P34707 whole entry): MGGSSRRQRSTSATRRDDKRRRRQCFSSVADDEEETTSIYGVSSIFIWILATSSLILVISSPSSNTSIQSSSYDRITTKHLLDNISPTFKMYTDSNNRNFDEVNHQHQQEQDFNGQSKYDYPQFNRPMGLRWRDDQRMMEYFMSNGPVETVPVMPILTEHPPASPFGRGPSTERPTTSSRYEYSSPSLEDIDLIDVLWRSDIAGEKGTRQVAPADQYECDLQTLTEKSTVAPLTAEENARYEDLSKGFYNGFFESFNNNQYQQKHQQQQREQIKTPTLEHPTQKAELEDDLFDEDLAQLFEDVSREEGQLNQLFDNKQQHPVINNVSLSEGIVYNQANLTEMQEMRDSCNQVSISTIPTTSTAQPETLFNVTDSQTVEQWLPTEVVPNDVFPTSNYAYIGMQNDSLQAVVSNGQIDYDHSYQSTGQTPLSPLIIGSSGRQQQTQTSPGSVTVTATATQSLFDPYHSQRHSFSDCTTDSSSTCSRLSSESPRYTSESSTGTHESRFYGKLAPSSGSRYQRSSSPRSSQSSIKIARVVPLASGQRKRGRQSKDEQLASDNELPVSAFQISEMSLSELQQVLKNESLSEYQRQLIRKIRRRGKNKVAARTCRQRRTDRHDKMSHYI
It is filed as functional.

Assay [17] concerns BJ. Put plainly: BJ-TERT-LT-ST fibroblast viability loss – cell-based, RAS-independent, luminescence, dose response (AID 1935).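 Also: BJ fibroblasts immortalized with TERT plus LT and ST oncogenes.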 As to conditions: Homo sapiens. The assay is classed as functional.
For assay [18], the system named is BJ. Put plainly: BJ-TERT fibroblast viability loss – cell-based, RAS-independent, luminescence, dose response (AID 1933). It is filed as functional. As to conditions: Homo sapiens.
Assay [19] is described as follows: DRD fibroblast viability loss – cell-based, non-viral oncogenic, luminescence, dose response (AID 1934). It is filed as functional. As to conditions: Homo sapiens.
The test system of assay [20] is BJ. Put plainly: cells. The note with it: Homo sapiens. It is filed as functional, cell-based.
Another assay deals with Genome polyprotein (dengue virus type 2, UniProt P29990). Briefly: flavivirus cap methylation enzyme inhibition – biochemical, confirmation dose response, primary screen (AID 588689). It is filed as functional.
A further assay relates to Vero. Put plainly: viability of Vero cells under compound – cytotoxicity control for flavivirus capping enzyme inhibitors (AID 588742). The assay is classed as functional. The note with it: Chlorocebus sabaeus.
For another assay, the system named is H4. Briefly: Luminescence Cell-Based Dose Response HTS to Identify Activators of 5'UTR Stem-Loop Driven Prion Protein mRNA Translation in H4 Neuroglioblastoma Cells. [Related pubchem assays: 1829 (Project Summary), 1814 (Primary HTS)]. The assay is classed as functional. The note with it: Homo sapiens.

Nonstructural protein 1, sequence (Q194T2 whole entry): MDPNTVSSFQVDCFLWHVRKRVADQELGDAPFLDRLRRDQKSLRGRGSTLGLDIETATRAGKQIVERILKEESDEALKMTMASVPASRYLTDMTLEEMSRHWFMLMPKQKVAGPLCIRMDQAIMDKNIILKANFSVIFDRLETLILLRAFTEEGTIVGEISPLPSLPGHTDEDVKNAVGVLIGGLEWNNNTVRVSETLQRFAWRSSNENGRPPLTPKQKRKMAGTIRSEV
Induced myeloid leukemia cell differentiation protein Mcl-1, sequence (Q07820 whole entry): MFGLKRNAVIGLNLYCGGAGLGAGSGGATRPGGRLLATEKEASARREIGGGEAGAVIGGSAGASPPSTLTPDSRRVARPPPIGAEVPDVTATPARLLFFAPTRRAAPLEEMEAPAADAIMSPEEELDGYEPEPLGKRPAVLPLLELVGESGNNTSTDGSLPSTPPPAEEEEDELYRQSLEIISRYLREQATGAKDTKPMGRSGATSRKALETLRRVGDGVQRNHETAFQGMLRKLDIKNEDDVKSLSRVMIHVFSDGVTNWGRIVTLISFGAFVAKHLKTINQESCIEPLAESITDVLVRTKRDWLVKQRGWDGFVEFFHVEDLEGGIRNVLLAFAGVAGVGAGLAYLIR
Glyceraldehyde-3-phosphate dehydrogenase, sequence (P04406 whole entry): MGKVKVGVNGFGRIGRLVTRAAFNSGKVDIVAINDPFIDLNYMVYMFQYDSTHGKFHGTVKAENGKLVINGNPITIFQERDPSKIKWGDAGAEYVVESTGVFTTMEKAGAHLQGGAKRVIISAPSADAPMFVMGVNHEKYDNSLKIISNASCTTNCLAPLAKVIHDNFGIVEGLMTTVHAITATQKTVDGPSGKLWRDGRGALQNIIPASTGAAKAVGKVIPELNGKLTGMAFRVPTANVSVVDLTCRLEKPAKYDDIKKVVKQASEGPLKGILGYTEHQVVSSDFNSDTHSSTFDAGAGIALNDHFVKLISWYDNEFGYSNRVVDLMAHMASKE
Genome polyprotein, sequence (P29990 2492-3391 limits assumed): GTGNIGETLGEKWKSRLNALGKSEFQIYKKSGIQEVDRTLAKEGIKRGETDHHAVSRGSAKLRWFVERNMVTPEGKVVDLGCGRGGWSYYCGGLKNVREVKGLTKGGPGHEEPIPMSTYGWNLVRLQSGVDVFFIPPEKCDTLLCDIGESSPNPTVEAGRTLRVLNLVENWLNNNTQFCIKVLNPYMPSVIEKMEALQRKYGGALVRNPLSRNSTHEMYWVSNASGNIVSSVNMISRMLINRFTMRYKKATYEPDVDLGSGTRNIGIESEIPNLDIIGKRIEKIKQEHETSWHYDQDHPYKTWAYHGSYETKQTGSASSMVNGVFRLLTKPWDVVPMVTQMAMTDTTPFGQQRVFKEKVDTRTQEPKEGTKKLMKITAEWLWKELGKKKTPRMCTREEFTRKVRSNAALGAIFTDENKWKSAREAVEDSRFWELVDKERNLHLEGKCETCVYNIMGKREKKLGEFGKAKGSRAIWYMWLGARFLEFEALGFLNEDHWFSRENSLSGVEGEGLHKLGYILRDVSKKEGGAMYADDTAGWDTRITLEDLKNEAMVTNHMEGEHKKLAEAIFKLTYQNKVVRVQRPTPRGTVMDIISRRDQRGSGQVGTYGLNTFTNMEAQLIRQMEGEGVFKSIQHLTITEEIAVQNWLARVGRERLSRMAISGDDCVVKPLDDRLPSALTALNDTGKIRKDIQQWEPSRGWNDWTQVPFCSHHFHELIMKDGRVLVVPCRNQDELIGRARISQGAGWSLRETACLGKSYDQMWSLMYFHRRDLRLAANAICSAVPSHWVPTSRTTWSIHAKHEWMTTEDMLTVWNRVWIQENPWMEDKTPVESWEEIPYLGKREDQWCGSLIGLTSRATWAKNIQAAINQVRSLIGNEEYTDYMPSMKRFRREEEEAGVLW

Regarding `Cc1ccc(-n2ncc3c2CCCC3NC(=O)c2ccccc2N2CCOCC2)cc1C` (stereo not drawn), the AC50 in assay [1] is 0.984 µM (active).

Take `Cc1ccc(N=Nc2ccc(O)cc2)c(Br)c1`: the AC50 is 6.26 µM (active) in assay [2], 39.2 µM (active) in the assay on HeLa and 7.83 µM (active) in assay [1]. Also, in assay [3], the EC50 is > 67.5 µM (inactive).

With `Cc1cc(N/C=C/C(=O)c2ccc(Br)cc2)no1`, the values for the EC50 in the assay “cells [4]” and in “cells [5]” were 59.3 µM (active) and > 350 µM (not active), respectively.

Consider `CN1CCN(C(=O)c2ccc(-c3cccs3)s2)CC1`, for which, at CAAX prenyl protease 2, the AC50 was 32.5 µM (active).

For the compound `C#CCN(Cc1ccccc1)S(=O)(=O)C=C`, in assay [6], the IC50 is > 80 µM (inactive).

Consider `CCOc1ccc(/C=C2\SC(=S)N(CCC(=O)Nc3ccc(C(=O)O)cc3)C2=O)cc1`, for which the IC50 in assay [6] was > 80 µM (inactive); in [7] it was 1.88 µM (active).

Take `Nc1nnc(Sc2ncccc2[N+](=O)[O-])s1`: in “cells [8]”, the IC50 is 15.3 µM (active).

`O=C(C[C@H]1CC[C@@H](NC(=O)c2ccccc2)[C@H](CO)O1)NCc1ccc(Oc2ccccc2)cc1`: the AC50 in [9] was 0.349 µM (active); in assay [10] it was 4.3 µM (active); in assay [11] it was 62.1 µM (active); in assay [12] it was 3.8 µM (active).

Turning to `COCCN1Cc2cccc(C(=O)Nc3cccc(C)c3C)c2C1=O`, the IC50 in assay [13] is 6.79 µM (not active).

As for `O=C(C1=NN[C@@H]2C(=O)N(c3cccc(C(F)(F)F)c3)C(=O)[C@H]12)C(c1ccccc1)c1ccccc1`, the EC50 in “cells [4]” and in “cells [5]” was > 350 µM (not active) in each case.

For the compound `CN(C)c1ccc(N=Nc2nccs2)cc1`, the EC50 in [3] is > 67.4 µM (inactive).

For `CCOc1cc2nc(-c3ccc(OC)c(OC)c3)nc(N3CCOCC3)c2cc1OC`, the IC50 in [6] was > 80 µM (inactive).

As to `O=C(/C=C/c1ccccc1)NCCc1nc2ccccc2[nH]1`, the EC50 in “cells [4]” and in the assay “cells [5]” was > 350 µM (not active) in each case.

In the case of `CO[C@@H](CN(C)S(=O)(=O)c1ccc(Cl)cc1)[C@H](C)CN([C@@H](C)CO)S(=O)(=O)c1cccc(Cl)c1`, the AC50 was 19.1 µM (active) in assay [9], 8.73 µM (active) in assay [10] and 20 µM (active) in [12].

Regarding `CC(C)N1CCN(Cc2ccc(OCc3ccccc3)cc2)CC1CCO` (stereo not drawn), the AC50 in [2] is 3.36 µM (active); on CAAX prenyl protease 2, 72.9 µM (active).

In the case of `CC(C)N1C(=O)/C(=C\c2nc3ccccc3c(=O)n2-c2ccccc2)c2ccccc21`, the AC50 in assay [2] was 8.71 µM (active). In addition, the IC50 on Nonstructural protein 1 was 50.5 µM (active). Moreover, the EC50 in [14] was 1.36 µM (active).

Turning to `CCn1c(=O)c2cc(C(=O)NC(C)C)sc2c2ccccc21`, in [6], the IC50 is 27.6 µM (inactive).

Consider `OC(c1ccccn1)(c1ccccn1)c1ccccn1`, for which the IC50 at Nonstructural protein 1 is 10.9 µM (active).

On to `Cc1ccccc1N=C(S)N(CCN(C)C)C(C)c1ccccn1` (stereo not drawn), for which, at Nonstructural protein 1, the IC50 is 64.5 µM (active).

With `Cc1ccc(SCC(=O)Nc2nnc[nH]2)cc1`, the IC50 in assay [15] was > 10 µM (inconclusive).

As for `CC(C)C#Cc1ccc2c(c1)O[C@@H](CN(C)C(=O)C1CCCCC1)[C@H](C)CN([C@H](C)CO)S2(=O)=O`, the AC50 in [11] is 21.3 µM (active); in [12] it was 21.2 µM (active).

In the case of `Cc1ccc(-n2ncc3ccccc3c2=O)cc1Cl`, the EC50 in assay [3] is > 67.6 µM (inactive).

With `Cc1ccc(S(=O)(=O)N2CCOCC2)cc1NC(=O)CNCc1ccccn1`, the IC50 at Nonstructural protein 1 is 18 µM (active).

In the case of `Cc1ccc(-c2cc(C(F)F)n3ncc(C(=O)N4CCN(c5cccc(C)c5C)CC4)c3n2)cc1`, the CC50 in [16] was 10.2 µM (active). Besides, the IC50 on Protein skinhead-1 was > 100 µM (inactive).

As for `COc1ccc(/C=N/n2cnc3c4cc(F)ccc4nc-3c2O)cc1CN1CCCC1`, the EC50 was 4.92 µM (active) with BJ [17], 5.03 µM (inconclusive) with BJ [18], 5.47 µM (inconclusive) in assay [19] and 9.17 µM (inconclusive) with BJ [20].

`COc1ccc(-c2cc(C(F)(F)F)c3c(=O)n(-c4ccccc4)[nH]c3n2)cc1`: the IC50 on Genome polyprotein was 44.2 µM (active). Also, the CC50 in the assay on Vero was > 40 µM (active).

Regarding `O=C(CCCc1ccccc1)NC12CC3CC(CC(C3)C1)C2`, the EC50 in assay [3] was > 67.5 µM (inactive); with H4 it was > 120 µM (not active).

As to `COc1cccc(NC(=O)c2cnc(SC)nc2)c1`, the IC50 in the assay “cells [8]” was 15.3 µM (active).

`Cc1ccc(CSc2nnc(CCCCCNC(=O)OC(C)(C)C)o2)cc1`: the EC50 in “cells [4]” and in the assay “cells [5]” was > 350 µM (not active) each time.

Take `Nc1ccc(C2=Nc3cccc4cccc(c34)N2)cc1`: in [13], the IC50 was 2.86 µM (active).
